This is an account of results in US20240335427A1, “SMALL MOLECULE INHIBITION OF DEUBIQUITINATING ENZYME JOSEPHIN DOMAIN CONTAINING 1 (JOSD1) AS A TARGETED THERAPY FOR LEUKEMIAS WITH MUTANT JANUS KINASE 2 (JAK2)” (DANA-FARBER CANCER INSTITUTE, INC., priority 2021, published 2024).

One assay has as its target UCHL1 (Homo sapiens (Human), UniProt P09936). Put plainly: UCHL1 biochemical inhibition (ubiquitin hydrolase activity, purified enzyme).
For a further assay, the target named is JOSD1 (Homo sapiens (Human), UniProt Q15040). Put plainly: In vitro JOSD1 activity assay (biochemical IC50, purified enzyme). The conditions noted are these: read-out: JOSD1 IC50.
Assay [1] concerns JAK2-V617F-positive primary AML patient samples. Put plainly: AML liquid culture proliferation, primary patient samples. The conditions noted are these: 1 μM. Format: cell-based, human. An excerpt: AML liquid culture proliferation and colony assay studies. Frozen vials of bone marrow from AML patients identified as harboring JAK2-V617F were previously Ficoll®-purified to obtain mononuclear cells and thawed prior to use in studies.

UCHL1, sequence (P09936 whole entry, species assumed): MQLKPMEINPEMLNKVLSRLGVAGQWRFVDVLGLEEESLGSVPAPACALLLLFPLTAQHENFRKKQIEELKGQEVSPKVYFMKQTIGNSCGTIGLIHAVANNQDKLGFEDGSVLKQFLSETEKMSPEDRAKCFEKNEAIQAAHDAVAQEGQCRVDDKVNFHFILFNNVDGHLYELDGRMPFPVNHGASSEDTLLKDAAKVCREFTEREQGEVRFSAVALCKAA
Experimental for JOSD1: In vitro JOSD1 activity assay & Ubiquitin-7-amido-4-methylcoumarin (AMC) assay. In vitro JOSD1 activity assay was carried out with Ubiquitin-AMC assay. […] Recombinant JOSD1 was tested for activity in a Ubiquitin-AMC assay in the presence or absence of inhibitors. […] The reaction was incubated for 6 hours at room temperature prior to the addition of 2 μM Ubiquitin-AMC (Boston Biochem) substrate. The initial rate of the reaction was measured by collecting fluorescence data at one-minute intervals over a 30-minute period using a Clariostar® fluorescence plate reader at excitation and emission wavelengths of 345 and 445 nm, respectively. The calculated initial rate values were plotted against inhibitor concentrations to determine IC50 values.
In vitro JOSD1 activity assay. Recombinant full-length JOSD1 was tested for activity in a Ubiquitin-AMC assay in the presence or absence or inhibitors. For this assay, 10 nM JOSD1 was pre-incubated with different concentrations of inhibitors or DMSO as a control in 50 mM Tris 8.0, 0.5 mM EDTA, 10 mM ovalbumin, 5 mM DTT. The reaction was incubated for 6 h at room temperature prior to the addition of 2 mM Ubiquitin-AMC (Boston Biochem) substrate. The initial rate of the reaction was measured by collecting fluorescence data at one-minute intervals over a 30-minute period using a CLARIOstar® fluorescence plate reader at excitation and emission wavelengths of 345 and 445 nm, respectively. The calculated initial rate values were plotted against inhibitor concentrations to determine IC50 values.
JOSD1 biochemical inhibition was investigated for the analogs shown using the fluorescent substrate ubiquitin-rhodamine against purified enzyme in a continuous kinetic assay.

On to `N#CN1CCC(C(=O)Nc2nc3ccc(C4CC4)cc3s2)C1` (stereo in doubt) [Compound 8, (R)-1-cyano-N-(6-cyclopropylbenzo[d]thiazol-2-yl)pyrrolidine-3-carboxamide], for which the IC50 against UCHL1 stood at 12 nM; at JOSD1, 99 nM.

As to `Cc1noc(C)c1-c1ccc2sc(NC(=O)[C@H]3CCN(C#N)C3)nc2c1` [Compound 4, (S)-1-cyano-N-(5-(3,5-dimethylisoxazol-4-yl)benzo[d]thiazol-2-yl)pyrrolidine-3-carboxamide], on JOSD1, the IC50 is 45 nM. In the case of `Cc1noc(C)c1-c1cccc2sc(NC(=O)[C@H]3CCN(C#N)C3)nc12` [Compound 5, (S)-1-cyano-N-(4-(3,5-dimethylisoxazol-4-yl)benzo[d]thiazol-2-yl)pyrrolidine-3-carboxamide], the IC50 at JOSD1 amounted to 74 nM. As for `CCn1cc(-c2ccc3nc(NC(=O)[C@@H]4CCN(C#N)C4)sc3c2)cn1` [Compound 6, (R)-1-cyano-N-(6-(1-ethyl-1H-pyrazol-4-yl)benzo[d]thiazol-2-yl)pyrrolidine-3-carboxamide], the IC50 at JOSD1 is 82 nM.

With `N#CN1CC[C@H](C(=O)Nc2ccc3c(cnn3Cc3ccccc3)c2)C1` [Compound 10, (S)—N-(1-benzyl-1H-indazol-5-yl)-1-cyanopyrrolidine-3-carboxamide], the IC50 at JOSD1 was determined as 160 nM.

With `N#CN1CC[C@H](C(=O)Nc2nc(-c3ccccc3)cs2)C1` [Compound 11, (S)-1-cyano-N-(4-phenylthiazol-2-yl)pyrrolidine-3-carboxamide], the IC50 on JOSD1 came out at 160 nM.

As to `Cc1noc(C)c1-c1ccc2nc(NC(=O)[C@H]3CCN(C#N)C3)sc2c1` [Compound 12], the IC50 on UCHL1 was found to be 100 nM; at JOSD1 it was 244 nM. On to `N#CN1CC[C@@H](C(=O)Nc2nc3ccc(-c4ccc(-c5ccccc5)cc4)cc3s2)C1` [Compound 14, (R)—N-(6-([1,1′-biphenyl]-4-yl)benzo[d]thiazol-2-yl)-1-cyanopyrrolidine-3-carboxamide], for which the IC50 on JOSD1 came to 270 nM. Turning to `N#CN1CC[C@H](C(=O)Nc2nc3ccc(Br)nc3s2)C1` [Compound 15, (S)—N-(5-bromothiazolo[5,4-b]pyridin-2-yl)-1-cyanopyrrolidine-3-carboxamide], the IC50 against UCHL1 came to 2000 nM; at JOSD1 it was 288 nM. With `Cc1cccc2sc(NC(=O)[C@H]3CCN(C#N)C3)nc12` [Compound 18, (S)-1-cyano-N-(4-methylbenzo[d]thiazol-2-yl)pyrrolidine-3-carboxamide], the IC50 at JOSD1 was found to be 380 nM. `Cc1noc(C)c1-c1ccc2nc(NC(=O)[C@H]3CCN(C#N)C3)sc2n1` [Compound 19]: the concentration for half-maximal inhibition (IC50) at UCHL1 worked out at 90 nM; on JOSD1, 420 nM.

In the case of `N#CN1CC[C@H](NC(=O)c2nc3ccccc3s2)C1` [Compound 20], the figures for the IC50 against UCHL1 and on JOSD1 were 2060 nM and 430 nM, respectively. As for `Cc1noc(C)c1-c1ccc2cnc(NC(=O)[C@H]3CCN(C#N)C3)cc2c1` [Compound 21], the IC50 at JOSD1 is 460 nM.

Regarding `N#CN1CC[C@H](C(=O)Nc2nc3ccc(-c4c[nH]nc4C(F)(F)F)cc3s2)C1` [Compound 22, (S)-1-cyano-N-(6-(3-(trifluoromethyl)-1H-pyrazol-4-yl)benzo[d]thiazol-2-yl)pyrrolidine-3-carboxamide], on JOSD1, the IC50 is 520 nM. Turning to `Cc1noc(C)c1-c1ccc2nc(NC(=O)[C@@H]3CCN(C#N)C3)sc2c1` [Compound 24], the values for the half-maximal inhibitory concentration (IC50) against UCHL1 and on JOSD1 were 1850 nM and 690 nM, respectively. The like results for `N#CN1CC[C@H](C(=O)Nc2ccn(Cc3ccccc3)c2)C1` [Compound 25] were, in that order, 8900 nM and 931 nM.

For `N#CN1CCC(C(=O)Nc2nc3c(s2)CN(C(=O)c2ccccc2)CC3)C1` (centres unmarked) [Compound 26], the concentration for half-maximal inhibition (IC50) is 100 nM on UCHL1 and 1100 nM on JOSD1. As for `N#CN1CC[C@H](C(=O)Nc2cnn(Cc3ccccc3)c2)C1` [Compound 27, (S)—N-(1-benzyl-1H-pyrazol-4-yl)-1-cyanopyrrolidine-3-carboxamide], the IC50 on JOSD1 amounted to 1100 nM. Turning to `N#CN1CC[C@H](C(=O)Nc2cn(-c3ccccc3)cn2)C1` [Compound 28], the IC50 was 155 nM at UCHL1 and 1220 nM at JOSD1.

`N#CN1CC[C@@H](C(=O)Nc2cn(Cc3ccccc3)cn2)C1` [Compound 29] displayed an IC50 on UCHL1 of 2000 nM.

Regarding `N#CN1CC[C@H](C(=O)Nc2nc3ccccc3[nH]2)C1` [Compound 30, (S)—N-(1H-benzo[d]imidazol-2-yl)-1-cyanopyrrolidine-3-carboxamide], the IC50 amounted to 3670 nM against UCHL1 and 1370 nM at JOSD1.

In the case of `N#CN1CC[C@H](C(=O)Nc2nc3n(n2)CCN(Cc2ccccc2)C3)C1` [Compound 31], the values for the IC50 against UCHL1 and on JOSD1 were 2690 nM and 1400 nM, respectively. For `N#CN1CC[C@H](C(=O)Nc2cn(Cc3ccccc3)cn2)C1` [Compound 32], the IC50 on UCHL1 turned out to be 104 nM. For `N#CN1CC(C(=O)Nc2nc3ccc(Br)cc3s2)C1` [Compound 33, N-(6-bromobenzo[d]thiazol-2-yl)-1-cyanoazetidine-3-carboxamide], the results for the IC50 against UCHL1 and on JOSD1 were 1830 nM and 1950 nM, respectively. On to `Cc1sc(N(C)C(=O)[C@@H]2CCCN2C#N)nc1-c1cccc(C#N)n1` [Compound 34], for which the IC50 at JOSD1 turned out to be 2130 nM. In the case of `Cc1noc(C)c1-c1ccc2nc(NC(=O)C3CCN(C#N)CC3)sc2c1` [Compound 35, 1-Cyano-N-(6-(3,5-dimethylisoxazol-4-yl)benzo[d]thiazol-2-yl)piperidine-4-carboxamide], the IC50 came to 420 nM at UCHL1 and 2770 nM at JOSD1.

Regarding `N#CN1CC[C@H](C(=O)Nc2nc3n(n2)CCN(C(=O)c2ccccc2)C3)C1` [Compound 36], the IC50 against UCHL1 came to 1340 nM; at JOSD1 it was 3370 nM. The like results for `N#CN1CC[C@H](C(=O)Nc2cn(C3CCCN(C(=O)c4ccccc4)C3)cn2)C1` (some centres unmarked) [Compound 38] were, in that order, 89 nM and 4150 nM. As for `N#CN1CC[C@H](C(=O)Nc2nc3ccccc3o2)C1` [Compound 39, (S)—N-(benzo[d]oxazol-2-yl)-1-cyanopyrrolidine-3-carboxamide], the IC50 on JOSD1 was found to be 4850 nM. Regarding `Cc1noc(C)c1-c1ccc2nc(NC(=O)[C@H]3CCN(CC#N)C3)sc2c1` [Compound 40, (S)-1-(cyanomethyl)-N-(6-(3,5-dimethylisoxazol-4-yl)benzo[d]thiazol-2-yl)pyrrolidine-3-carboxamide], the results for the half-maximal inhibitory concentration (IC50) at UCHL1 and at JOSD1 were 100000 nM and 5680 nM, respectively. On to `N#CN1CCc2cc(NC(=O)c3nc4ccccc4s3)ccc21` [Compound 41], for which the IC50 against UCHL1 worked out at 100000 nM; on JOSD1 it was 6070 nM. The like results for `N#CN1CCC[C@H](C(=O)Nc2cn(Cc3ccccc3)cn2)C1` [Compound 42] were, in that order, 1080 nM and 6230 nM.

Turning to `Cc1noc(C)c1-c1ccc2nc(NC(=O)c3ccnc(C#N)n3)sc2c1` [Compound 43, 2-Cyano-N-(6-(3,5-dimethyl-1λ^3,2λ^2-isoxazol-4-yl)benzo[d]thiazol-2-yl)pyrimidine-4-carboxamide], at JOSD1, the IC50 worked out at 6420 nM. Same read-out and setting: the result for `C#CCNC(=O)c1ccc(-c2cnc(NC(=O)[C@H]3CCN(C#N)C3)s2)cc1` [Compound 44, (S)-1-cyano-N-(5-(4-(prop-2-yn-1-ylcarbamoyl)phenyl)thiazol-2-yl)pyrrolidine-3-carboxamide] reads 8250 nM. Turning to `N#CN1CC(CNC(=O)c2nc3ccccc3s2)C1` [Compound 46, N-((1-cyanoazetidin-3-yl)methyl)benzo[d]thiazole-2-carboxamide], the values for the IC50 on UCHL1 and on JOSD1 were 100000 nM and 11300 nM, respectively. On UCHL1, `Cc1noc(C)c1-c1ccc2nc(NC(=O)C3CN(C#N)C3)sc2c1` [Compound 47, 1-Cyano-N-(6-(3,5-dimethylisoxazol-4-yl)benzo[d]thiazol-2-yl)azetidine-3-carboxamide] yielded an IC50 of 1290 nM. With `N#CC[C@H](C1CCCC1)n1cc(-c2ncnc3[nH]ccc23)cn1` [ruxolitinib, reference compound], the “efficacy against primary AML cells” value in assay [1] was “at best modest efficacy”.

The IC50 is the midpoint of a concentration-inhibition curve.
